These results are taken from US20070004660A1, “Synergistic Modulation of Flt3 Kinase Using Alkylquinolines and Alkylquinazolines” (priority 2005, published 2007).

The structures appear in SMILES notation. Where only a bound is given, the exact number is not on record here.

The target of the assay is T1, wild-type FLT3 receptor (Homo sapiens, UniProt P36888).
T1 construct: host or cells: Baf3 (murine B cell lymphoma line), stably transfected
T1 sequence (P36888 27-993): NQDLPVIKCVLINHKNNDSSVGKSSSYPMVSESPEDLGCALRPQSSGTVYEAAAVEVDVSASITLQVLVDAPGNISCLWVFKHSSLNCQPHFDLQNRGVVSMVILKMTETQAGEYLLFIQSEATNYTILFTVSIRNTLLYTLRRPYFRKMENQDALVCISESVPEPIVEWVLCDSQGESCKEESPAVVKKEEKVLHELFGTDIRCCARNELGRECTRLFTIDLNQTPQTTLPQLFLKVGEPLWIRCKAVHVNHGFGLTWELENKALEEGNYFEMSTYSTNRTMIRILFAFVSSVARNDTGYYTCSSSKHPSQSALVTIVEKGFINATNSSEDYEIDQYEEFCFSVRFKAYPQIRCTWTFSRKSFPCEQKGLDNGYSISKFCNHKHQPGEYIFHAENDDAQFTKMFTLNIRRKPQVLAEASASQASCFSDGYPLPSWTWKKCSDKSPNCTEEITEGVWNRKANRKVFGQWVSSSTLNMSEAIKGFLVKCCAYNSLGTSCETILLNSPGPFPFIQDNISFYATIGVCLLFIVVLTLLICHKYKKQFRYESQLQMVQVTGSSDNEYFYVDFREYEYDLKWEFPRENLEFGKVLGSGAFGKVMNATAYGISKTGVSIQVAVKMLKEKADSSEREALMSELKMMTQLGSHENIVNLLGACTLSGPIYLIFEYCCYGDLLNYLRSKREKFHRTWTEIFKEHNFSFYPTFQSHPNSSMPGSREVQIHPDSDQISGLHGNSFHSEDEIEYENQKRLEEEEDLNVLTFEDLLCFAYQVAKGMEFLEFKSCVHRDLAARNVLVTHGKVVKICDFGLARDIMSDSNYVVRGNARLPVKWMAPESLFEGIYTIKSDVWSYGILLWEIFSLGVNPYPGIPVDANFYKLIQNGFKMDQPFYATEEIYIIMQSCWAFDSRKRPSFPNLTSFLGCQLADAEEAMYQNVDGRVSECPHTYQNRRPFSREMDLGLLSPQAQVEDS
The experiment in a line: Cell-based FLT3 receptor ELISA (FLT ligand-induced phosphorylation in Baf3 FLT3 cells). The settings on record: 100 ng/mL Flt ligand, uncertainty ±20%. The method, boiled down: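 Receptor phosphotyrosine measured by sandwich ELISA (anti-FLT3 capture, HRP anti-pTyr, luminescence) in FLT3-transfected murine Baf3 cells given 1 h compound pretreatment and 10 min 100 ng/mL FLT ligand after overnight low-serum starvation; triplicates, IC50 from nonlinear regression.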
Broadly, the IC50 is the point on the concentration scale where inhibition reaches its midpoint. In turn, `O=C1CCCN1CCOc1cc2ncnc(C3CCN(C(=O)Nc4ccc(N5CCCC5)cc4)CC3)c2cc1F` [Compound 206, 4-{6-Fluoro-7-[2-(2-oxo-pyrrolidin-1-yl)-ethoxy]-quinazolin-4-yl}-piperidine-1-carboxylic acid (4-pyrrolidin-1-yl-phenyl)-amide] gave an IC50 of 0.022 µM.

For the compound `COc1ccc2c(C3CCN(C(=O)Nc4ccc(OC(C)C)cc4)CC3)ncnc2c1` [Example 31, 4-(7-Methoxy-quinazolin-4-yl)-piperidine-1-carboxylic acid (4-isopropoxy-phenyl)-amide], the IC50 worked out at 0.055 µM. As for `COc1cc2ncnc(C3CCN(C(=O)Nc4ccc(NC(C)=O)cc4)CC3)c2cc1OC` [Example 25, 4-(6,7-Dimethoxy-quinazolin-4-yl)-piperidine-1-carboxylic acid (4-acetylamino-phenyl)-amide], the figure is over 10 µM; as for `COc1cc2ncnc(C3CCN(C(=O)Nc4ccc(I)cc4)CC3)c2cc1OC` [Example 2, 4-(6,7-Dimethoxy-quinazolin-4-yl)-piperidine-1-carboxylic acid (4-iodo-phenyl)-amide], 0.89 µM. As for `CC(C)Oc1ccc(NC(=O)N2CCC(c3ncnc4cc(OCCCN5CCN(C)CC5)ccc34)CC2)cc1` [Example 39], the figure is 0.008 µM; as for `CCN(CC)CCCOc1ccc2c(C3CCN(C(=O)Nc4ccc(OC(C)C)cc4)CC3)ncnc2c1` [Example 36, 4-[7-(3-Diethylamino-propoxy)-quinazolin-4-yl)-piperidine-1-carboxylic acid (4-isopropoxy-phenyl)-amide], 0.018 µM. As for `CC(C)c1ccc(NC(=O)N2CCC(c3ncnc4cc(Cl)ccc34)CC2)cc1` [Example 30, 4-(7-Chloro-quinazolin-4-yl)-piperidine-1-carboxylic acid (4-isopropyl-phenyl)-amide], the figure is 0.083 µM; as for `CC(C)Oc1ccc(NC(=O)N2CCC(c3ncnc4cc(OCCN5CCOCC5)ccc34)CC2)cc1` [Example 37], 0.051 µM; as for `COc1cc2c(C3CCN(C(=O)Nc4ccc(N5CCCC5)cc4)CC3)ncnc2cc1N1CCOCC1` [Compound 211, 4-(6-Methoxy-7-morpholin-4-yl-quinazolin-4-yl)-piperidine-1-carboxylic acid (4-pyrrolidin-1-yl-phenyl)-amide], 0.001 µM. `COc1cc2c(C3CCN(C(=O)Nc4ccc(N5CCCC5)cc4)CC3)ncnc2cc1OCCN1CCCC1=O` [Compound 209, 4-{6-Methoxy-7-[2-(2-oxo-pyrrolidin-1-yl)-ethoxy]-quinazolin-4-yl}-piperidine-1-carboxylic acid (4-pyrrolidin-1-yl-phenyl)-amide] registered a half-maximal inhibitory concentration (IC50) of 0.037 µM. With `COc1cc2ncnc(C3CCN(C(=O)Cc4ccc(C(C)C)cc4)CC3)c2cc1OC` [Example 28, 1-[4-(6,7-Dimethoxy-quinazolin-4-yl)-piperidin-1-yl]-2-(4-isopropyl-phenyl)-ethanone] the figure was 0.002 µM.

In the case of `CC(C)Oc1ccc(NC(=O)N2CCC(c3ncnc4cc(Cl)ccc34)CC2)cc1` [Example 29, 4-(7-Chloro-quinazolin-4-yl)-piperidine-1-carboxylic acid (4-isopropoxy-phenyl)-amide], the IC50 turned out to be 0.05 µM. `COCCOc1ccc(NC(=O)N2CCC(c3ncnc4cc(OC)c(OC)cc34)CC2)cc1` [Example 40, 4-(6,7-Dimethoxy-quinazolin-4-yl)-piperidine-1-carboxylic acid [4-(2-methoxy-ethoxy)-phenyl]-amide] showed an IC50 of 1.5 µM. In the case of `O=C(Nc1ccc(N2CCCC2)cc1)N1CCC(c2ncnc3cc(N4CCOCC4)c(F)cc23)CC1` [Compound 210, 4-(6-Fluoro-7-morpholin-4-yl-quinazolin-4-yl)-piperidine-1-carboxylic acid (4-pyrrolidin-1-yl-phenyl)-amide], the IC50 came to 0.025 µM.

Turning to `CC(C)Oc1ccc(NC(=O)N2CCC(c3ncnc4cc(OCCCN5CCOCC5)ccc34)CC2)cc1` [Example 38], the IC50 came out at 0.015 µM. Regarding `COc1cc2ncnc(C3CCN(C(=O)Nc4ccc(-n5ccnc5)cc4)CC3)c2cc1OC` [Example 3, 4-(6,7-Dimethoxy-quinazolin-4-yl)-piperidine-1-carboxylic acid (4-imidazol-1-yl-phenyl)-amide], half-maximal inhibition (IC50) was put at 0.938 µM. With `COc1cc2c(C3CCN(C(=O)Nc4ccc(N5CCOCC5)cc4)CC3)ncnc2cc1N1CCOCC1` [Compound 212, 4-(6-Methoxy-7-morpholin-4-yl-quinazolin-4-yl)-piperidine-1-carboxylic acid (4-morpholin-4-yl-phenyl)-amide] the figure was 0.093 µM; with `COc1cc2ncnc(C3CCN(C(=O)Nc4ccc(N(C)C)cc4)CC3)c2cc1OC` [Example 26, 4-(6,7-Dimethoxy-quinazolin-4-yl)-piperidine-1-carboxylic acid (4-dimethylamino-phenyl)-amide], 0.109 µM; with `CC(C)Oc1ccc(NC(=O)N2CCC(c3ncnc4cc(OCCN5CCCCC5)ccc34)CC2)cc1` [Example 34, 4-(7-(2-Piperindin-1-yl-ethoxy)-quinazolin-4-yl)-piperidine-1-carboxylic acid (4-isopropoxy-phenyl)-amide], 0.079 µM. As for `COc1cc2c(C3CCN(C(=O)Nc4ccc(N5CCOCC5)cc4)CC3)ncnc2cc1OCCCN1CCN(C)CC1` [Compound 207, 4-{6-Methoxy-7-[3-(4-methyl-piperazin-1-yl)-propoxy]-quinazolin-4-yl}-piperidine-1-carboxylic acid (4-morpholin-4-yl-phenyl)-amide], the figure is 0.042 µM; as for `CC(C)Oc1ccc(NC(=O)N2CCC(c3ncnc4cc(OCCCN5CCCCC5)ccc34)CC2)cc1` [Example 33, 4-(7-(3-Piperidin-1-yl-propoxy)-quinazolin-4-yl)-piperidine-1-carboxylic acid (4-isopropoxy-phenyl)-amide], 0.011 µM; as for `CCN(CC)CCOc1ccc2c(C3CCN(C(=O)Nc4ccc(OC(C)C)cc4)CC3)ncnc2c1` [Example 35, 4-[7-(2-Diethylamino-ethoxy)-quinazolin-4-yl)-piperidine-1-carboxylic acid (4-isopropoxy-phenyl)-amide], 0.06 µM. With `COc1ccc2c(C3CCN(C(=O)Nc4ccc(C(C)C)cc4)CC3)ncnc2c1` [Example 32, 4-(7-Methoxy-quinazolin-4-yl)-piperidine-1-carboxylic acid (4-isopropyl-phenyl)-amide] the figure was 0.035 µM.
